{"source": "patent US20250114511A1", "about": "“BLOOD PERFUSION DEVICE TO REDUCE SECONDARY INFECTION IN HOSPITAL” (SEOUL NATIONAL UNIVERSITY R&DB FOUNDATION, priority 2022, published 2025)", "key": {"[1]": {"tested_on": "PMNs isolated from healthy volunteers", "assay": "Chemotaxis to 100 nM fMLF of healthy volunteer PMNs exposed to septic shock patient plasma", "assay_type": "cell-based, human", "conditions": "10 μM CsH", "procedure": "The effect of bead-anti-mtFP mixture treatment on PMN chemotaxis rescue was analyzed. PMS was isolated from blood samples obtained from healthy volunteers and exposed to untreated plasma from septic shock patients for 30 minutes in a 10-rpm rotator at 37° C. […] In order to estimate the capacity of non-FPR1-mediated PMN chemotaxis, separate PMNs exposed to bead anti-mtFP mixture-treated plasma were pretreated with 10 μM CsH 15 minutes prior to the chemotaxis experiment.\nThe inventors of the present disclosure investigated the chemotactic restoration effect of the anti-mtFP cocktail on PMNs by exposing PMNs from healthy volunteers to the plasma of septic shock patients treated with the anti-mtFP cocktail and then comparing PMN chemotaxis with plasma that had not received the anti-mtFP cocktail treatment."}, "[2]": {"tested_on": "PMNs isolated from septic shock patients with secondary infection", "assay": "Chemotaxis to 100 nM fMLF of PMNs from septic shock patients with secondary infection exposed to their own plasma", "assay_type": "cell-based, human", "conditions": "50 pg/mL recombinant LTB4 added to bead-anti-mtFP mixture treated plasma, 90 minutes"}, "[3]": {"tested_on": "human polymorphonuclear cells (PMN)", "conditions": "previous studies of the inventors; cited from earlier work"}, "FPR1": {"tested_on": "FPR1", "assay": "FPR1 expression on PMN membranes by flow cytometry", "assay_type": "cell-based, human", "conditions": "100 nM ND6 for 30 minutes", "procedure": "FPR1 expression on PMN membranes and the amount of CaMK2 in the homogenized PMN pellet were also detected by flow cytometry. In order to detect FPR1 on PMN membranes, PMNs (1.0×10^6 in 200 μL) were incubated with FITC-conjugated anti-human FPR1 antibody (2 μL, FAB3744F, R&D Systems, Minneapolis, MN) for 30 minutes at room temperature in the dark. FITC-conjugated mouse IgG2a, κ isotype control antibody (400210, BioLegend, San Diego, CA) was used as a negative control. After washing twice, fluorescence was measured. APC-conjugated anti-CaMK2 antibody (2 μL, ab225178, Abcam, Cambridge, UK) was used to detect the amount of CaMK2 in 200 μL of homogenized PMN pellet obtained by homogenization of 1.0×10^6/l mL PMN for 30 seconds at 4° C. and centrifugation at 20,000 g for 10 minutes. FPR1 expression in PMN membranes and the amount of CaMK2 in homogenized PMN pellets were quantified as mean fluorescence intensity (MFI) by using FlowJo version 10.0 (FlowJo, LLC, Ashland, OR). At least three independent experiments were performed."}, "[4]": {"tested_on": "human polymorphonuclear cells (PMN)", "method": "PMN chemotaxis was assessed by using multiScreen 96-well plates consisting of a 3-μm pore membrane (MAMIC3S10, Merck Millipore, Darmstadt, Germany). After preplanned treatment with ND6 or patient plasma, isolated human PMNs were centrifuged at 200 g for 10 minutes at 4° C. Afterwards, the PMN pellet was resuspended in Dulbecco's modified Eagle medium (DMEM, 11885-084, Thermo Fisher) containing 10% fetal bovine serum (FBS, F2442, Sigma-Aldrich). Before use, FBS was inactivated by heating at 56° C. for 1 hour. PMNs were placed in the upper chamber of the plate (0.1×10^6 PMNs at 75 μL per well), and medium containing 100 nM fMLF was placed in the lower chamber (150 μL per well). In medium without ND6 or fMLF, 0.1% DMSO was added.\nPlates were incubated for 60 minutes in an incubator at 37° C. with 5% carbon dioxide (CO2). […] Afterwards, the contents were transferred to a 96-well plate, and fluorescence was measured at an excitation/emission wavelength of 480/520 nm with a cut-off of 515 nm. The number of migrated PMNs was calculated by using a standard curve derived from known PMN numbers. […]\nAfter exposure to 100 nM ND6 for 30 minutes, PMNs were centrifuged at 220 g for 10 minutes at 4° C., and the supernatant was discarded. […] PMN chemotaxis at 30 and 90 minutes was measured as the number of PMNs migrated during 60-minute incubation between 30 and 90 minutes and 90 and 150 minutes, respectively."}, "[5]": {"molecular_target": "T1, formyl peptide receptor 1 (FPR1) (Homo sapiens, UniProt P21462)", "T1 sequence (P21462 1-350)": "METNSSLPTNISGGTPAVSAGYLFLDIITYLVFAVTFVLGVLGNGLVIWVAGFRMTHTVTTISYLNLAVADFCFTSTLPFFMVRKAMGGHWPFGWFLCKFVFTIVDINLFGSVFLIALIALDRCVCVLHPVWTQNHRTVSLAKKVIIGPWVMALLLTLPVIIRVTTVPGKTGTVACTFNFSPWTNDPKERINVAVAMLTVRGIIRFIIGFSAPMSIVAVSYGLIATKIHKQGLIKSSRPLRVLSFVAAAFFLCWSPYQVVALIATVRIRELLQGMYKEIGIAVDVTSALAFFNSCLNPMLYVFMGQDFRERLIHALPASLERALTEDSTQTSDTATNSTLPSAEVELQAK", "assay": "PMN intracellular calcium mobilization (ER calcium depletion and calcium influx, fura2-AM)", "method": "Calcium mobilization within PMN cells was measured according to the following method. The separated PMN pellet was resuspended in pH 7.4 hydroxyethyl piperazine ethane sulfonic acid (HEPES) buffer solution. This HEPES buffer solution includes 20 mM HEPES, 140 mM NaCl, 5 mM potassium chloride (KCl), 1 mM magnesium chloride (MgCl2), 1 mM calcium chloride (CaCl2)), 10 mM glucose and 0.1% bovine serum albumin (BSA, A2058 Sigma-Aldrich). PMNs were loaded with fura2-AM (F1221, Thermo Fisher, Waltham, MA) for 45 minutes at 37° C.\nFluorescence was measured at 505 nm with 340/380 nm dual-wavelength excitation at 37° C. by using a spectrofluorometer (FluoroMax Plus-C, Horiba, Ltd., Kyoto, Japan). For the quantitative measurement of endoplasmic reticulum (ER) calcium depletion, PMNs were centrifuged at 200 g for 10 minutes at 4° C. PMN pellets were then resuspended in a calcium-free HEPES buffer solution including 0.3 mM ethylene glycol-bis(2-aminoethylether)-N,N,N′,N′-tetraacetic acid (EGTA, E3889, Sigma-Aldrich, St. Louis, MO), and stimulated with ND6 and fMLF or with ND6 alone. 0.1% dimethyl sulfoxide (DMSO) was added to the medium without ND6 or fMLF. After endoplasmic reticulum calcium was depleted, 1.8 mM CaCl2) was added to induce cytoplasmic calcium influx. Endoplasmic reticulum calcium depletion and calcium influx were assessed by measuring the 340 nm/380 nm ratio and quantified as AUC over 150 seconds (AUC150) and AUC over 100 seconds (AUC100), respectively. […]\nIn order to investigate which steps of intracellular calcium mobilization stimulated by FPR1 agonists directly correlate with PMN chemotaxis, the inventors of the present disclosure quantitatively measured the amounts of endoplasmic reticulum (ER) calcium depletion and subsequent calcium influx into the cytoplasm in isolated human PMNs obtained from healthy volunteers. […] The area under the curve (AUC) of ER calcium depletion over 150 seconds was calculated to quantify the amount of ER calcium depletion stimulated by ND6 (AUC150 primary) and fMLF (AUC150 secondary), respectively. […]"}}, "note": "“Also recorded” adds a separate entry of the source. Read-outs that look alike come from different tables or passages of the source."}
{"compound": "C/C=C/C[C@@H](C)[C@@H](O)[C@H]1C(=O)N[C@@H](CC)C(=O)N(C)CC(=O)N(C)[C@@H](CC(C)C)C(=O)N[C@@H](C(C)C)C(=O)N(C)[C@@H](CC(C)C)C(=O)N[C@@H](C)C(=O)N[C@H](C)C(=O)N(C)[C@@H](CC(C)C)C(=O)N(C)[C@@H](CC(C)C)C(=O)N(C)[C@H](C(C)C)C(=O)N1C", "note": "[CsH, cyclosporine H]", "values": [{"measurement": "chemotaxis of CsH-treated PMNs versus CsH-free PMNs exposed to untreated plasma", "setting": "[1]", "value": "not significantly different"}]}
{"compound": "CCCCC/C=C\\C[C@@H](O)/C=C/C=C/C=C\\[C@@H](O)CCCC(=O)O", "note": "[recombinant LTB4, leukotriene B4]", "values": [{"measurement": "restoration of PMN chemotaxis compared to PMN exposed to untreated plasma", "setting": "[2]", "value": "effectively restored PMN chemotaxis"}, {"measurement": "restoration of PMN chemotaxis compared to PMN exposed to untreated plasma", "setting": "[2]; listed as recombinant leukotriene B4 (LTB4)", "value": "significantly restored PMN chemotaxis"}]}
{"compound": "N-formyl-methionine-leucine-phenylalanine [fMLF]", "values": [{"measurement": "most potent concentration to induce FPR1-mediated PMN chemotaxis", "setting": "[3]", "value": 100, "unit": "nM"}]}
{"compound": "N-formyl-methionine-methionine-tyrosine-alanine-leucine-phenylalanine [ND6]", "values": [{"measurement": "FPR1 expression in PMN membranes (MFI)", "setting": "FPR1", "value": "reduced FPR1 expression"}, {"measurement": "PMN chemotaxis in response to 100 nM fMLF", "setting": "[4]; 100 nM ND6 for 30 minutes", "value": "inhibited"}, {"measurement": "PMN chemotaxis in response to 100 nM fMLF", "setting": "[4]; ND6-treated PMNs, 100, 10, 5 nM", "value": "dose-dependently inhibited"}, {"measurement": "ER calcium depletion and calcium influx in response to 100 nM fMLF", "setting": "[5]; 100 nM ND6 for 30 minutes or more", "value": "inhibited; also recorded: did not completely inhibit"}, {"measurement": "inhibition of fMLF-stimulated secondary ER calcium depletion and subsequent calcium influx", "setting": "[5]; 100 nM, 10 nM, 5 nM ND6, then 100 nM fMLF", "value": "dose-dependently inhibited"}]}
